Assay results: US20030073695A1, “Methods of use of gemifloxacin compounds against fluoroquinolone resistant Streptococcus pneumoniae bacteria” (priority 2000, published 2003)
In brackets after ≈: the same amount, converted by molar mass.

How the values were obtained:
[1] = tested on: CFX and TFX susceptible and resistant S. pneumoniae; assay: Postantibiotic effect (PAE), 2 hour exposure, viable colony counting; type: cell-based, Streptococcus pneumoniae; conditions: for mean PAE at 4× MIC: exposure 2 hours at 4× MIC; for mean PAE at 10× MIC: exposure 2 hours at 10× MIC
Protocol: This invention was based, in part, on analyses evaluating the comparative activity of gemifloxacin against various strains of S. pneumoniae.
MICs were determined using a microbroth dilution technique described by the NCCLS. Topisomeriase IV (parC) and DNA gyrase (gyrA) mutations were confirmed by sequencing the QRDR region of each gene. […] Antibiotics were removed using dilution into sterile media and the PAE assessed using a viable colony counting technique.

[2] = tested on: S. pneumoniae with reduced susceptibility to CIP; assay: MIC by NCCLS microbroth dilution, 80 clinical isolates with CIP MIC ≧2 μg/ml; type: cell-based; conditions: Streptococcus pneumoniae, 80 isolates with CIP MICs ≧2 μg/ml
Protocol: MICs to penicillin (herein “PEN”), CIP, levofloxacin (herein “LEV”), TFX, moxifloxacin (herein “MOX”), grepafloxacin (herein “GRE”), gatifloxacin (herein “GAT”), sparfloxacin (herein “SPA”), and gemifloxacin (herein “GFX”) were determined using a microbroth dilution technique described by the NCCLS. Topoisomerase IV (parC) and DNA gyrase (gyrA) mutations were confirmed by sequencing the QRDR region of each gene. Serotyping and PFGE were performed on all isolates. […] Breakpoints have not been established for all fluoroquines, thus percentage resistance was not calculated.

[3] = GFX, isolates not restricted to susceptible
[4] = isolates susceptible to the tested drug

| SMILES | mean PAE at 4× MIC [1, 3] [h] | mean PAE at 10× MIC [1, 3] [h] | difference in duration of PAE between CFX or TFX susceptible and resistant strains ([1]; p<0.05) | MIC50 ([2]; MIC50 of Table 1) [µg/mL] | MIC50 ([2]; Table 1 MIC50) [µg/mL] | MIC [2] [µg/mL] | mean PAE at 4× MIC [1, 4] [h] | mean PAE at 10× MIC [1, 4] [h] |
| --- | --- | --- | --- | --- | --- | --- | --- | --- |
| CO/N=C1\CN(c2nc3c(cc2F)c(=O)c(C(=O)O)cn3C2CC2)CC1CN (racemic) [GFX, (R,S)-7-(3-aminomethyl-4-methoxyiminopyrrolidin-1-yl)-1-cyclopropyl-6-fluoro-4-oxo-1,4-dihydro-1,8-naphthyridine-3-carboxylic acid] | 2.7 | 3.8 | no significant difference | 0.06 (≈ 0.154 µM) | 0.25 (≈ 0.642 µM) | 0.03 to 0.5 (≈ 0.077 to 1.28 µM) | – | – |
| COc1c(N2CCNC(C)C2)c(F)cc2c(=O)c(C(=O)O)cn(C3CC3)c12 (centres unmarked) [GAT, gatifloxacin] | – | – | – | 0.5 (≈ 1.33 µM) | 4 (≈ 10.7 µM) | 0.25 to 8 (≈ 0.666 to 21.3 µM) | – | – |
| Cc1c(F)c(N2CCNC(C)C2)cc2c1c(=O)c(C(=O)O)cn2C1CC1 (centres unmarked) [GRE, grepafloxacin] | – | – | – | 0.5 (≈ 1.39 µM) | 8 (≈ 22.3 µM) | 0.12 to 8 (≈ 0.334 to 22.3 µM) | – | – |
| C[C@H]1COc2c(N3CCN(C)CC3)c(F)cc3c(=O)c(C(=O)O)cn1c23 [LEV, levofloxacin] | – | – | – | 2 (≈ 5.53 µM) | 16 (≈ 44.3 µM) | 1 to 32 (≈ 2.77 to 88.6 µM) | – | – |
| COc1c(N2C[C@@H]3CCCN[C@@H]3C2)c(F)cc2c(=O)c(C(=O)O)cn(C3CC3)c12 [MOX, moxifloxacin] | – | – | – | 0.25 (≈ 0.623 µM) | 2 (≈ 4.98 µM) | 0.12 to 4 (≈ 0.299 to 9.96 µM) | – | – |
| C[C@@H]1CN(c2c(F)c(N)c3c(=O)c(C(=O)O)cn(C4CC4)c3c2F)C[C@H](C)N1 [SPA, sparfloxacin] | – | – | – | 0.5 (≈ 1.27 µM) | 16 (≈ 40.8 µM) | 0.25 to 32 (≈ 0.637 to 81.5 µM) | – | – |
| N[C@@H]1[C@H]2CN(c3nc4c(cc3F)c(=O)c(C(=O)O)cn4-c3ccc(F)cc3F)C[C@@H]12 [TFX, trovafloxacin] | – | – | – | 0.5 (≈ 1.2 µM) | 4 (≈ 9.61 µM) | 0.06 to 8 (≈ 0.144 to 19.2 µM) | 2.1 | 3.2 |
